# Values of other authors as cited in patent US7771760B2, “Oils of capsaicinoids and methods of making and using the same” (NeurogesX, Inc., priority 2005, dated 2010).
structure (smiles),measurement,setting,value
COc1cc(CNC(=O)CCCC/C=C/C(C)C)ccc1O [capsaicin],solubility in organic solvents,"benzene, alcohol, ketone, ether and paraffin oils",soluble
same,solubility in cold water,cold water,sparingly soluble
